Biological target: T1, C5AR1 (Homo sapiens, UniProt P21730)
T1 construct: host or cells: CHO-K1
T1 sequence (P21730 1-350): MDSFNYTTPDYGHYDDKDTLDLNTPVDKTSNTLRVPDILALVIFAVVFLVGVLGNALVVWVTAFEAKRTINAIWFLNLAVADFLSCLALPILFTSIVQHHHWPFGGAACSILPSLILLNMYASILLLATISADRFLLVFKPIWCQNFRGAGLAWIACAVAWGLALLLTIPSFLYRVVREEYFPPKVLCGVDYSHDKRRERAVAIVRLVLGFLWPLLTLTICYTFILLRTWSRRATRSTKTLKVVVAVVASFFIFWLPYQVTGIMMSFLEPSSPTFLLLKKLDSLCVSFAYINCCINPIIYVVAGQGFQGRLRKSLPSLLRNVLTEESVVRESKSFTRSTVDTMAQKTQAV
Assay: In vitro assay: antagonism of C5a-induced beta-arrestin recruitment (PathHunter) in CHO-K1 C5AR1 beta-arrestin cell line
Assay type: cell-based
Conditions: antagonistic activity, 1-10 nM C5a agonist, geometric mean where several measurements, read-out: C5aR IC50
In short: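 Antagonist or DMSO added first, then C5a (1-10 nM, added at 6-fold end concentration), 1.5 h at 37 °C. PathHunter detection reagent was added for 45 min at RT before plate reading. IC50s come from antagonist serial dilutions in nmol/l and are geometric means of several measurements.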

In the case of `COc1nccc(C)c1N1CCC(N2Cc3nn(CC(C)(F)F)cc3N(Cc3ccccc3C(F)(F)F)C2=O)CC1` [Example 219], the IC50 is reported as 0.038 µM.

`Cc1cccc(F)c1N1CCC(N2Cc3cn(C(C)C)nc3N(Cc3ccccc3C(F)(F)F)C2=O)CC1` [Example 161] gave an IC50 of 0.007 µM.

For `Cc1cccc(F)c1N1CCC(N2Cc3cn(C[C@@H]4CC(F)(F)CN4C(=O)OC(C)(C)C)nc3N(Cc3ccccc3C(F)(F)F)C2=O)CC1` [Example 109], the IC50 was 0.027 µM.

`Cc1cccc(F)c1N1CCC(N2Cc3cn(C)nc3N(Cc3c(F)cc(F)cc3OC(C)C)C2=O)CC1` [Example 236] was tested, and the IC50 was 0.312 µM.

Compound `Cc1cccc(F)c1N1CCC(N2Cc3cn(C)nc3N(Cc3nnccc3OC(C)C)C2=O)CC1` [Example 267] has an IC50 of 0.201 µM.

For `COc1nccc(C)c1N1CCC(N2C(=O)N(Cc3ccccc3C(F)(F)F)c3c[nH]nc3C2C)CC1` (single isomer, unassigned) [Example 295], the IC50 was 0.025 µM.

For `COc1nccc(C(F)(F)F)c1N1CCC(N2C(=O)N(Cc3ccccc3C3CC3)c3nn(C)cc3C2C)CC1` (single isomer, unassigned) [Example 374], the IC50 was 0.008 µM.

`Cc1cccc(F)c1N1CCC(N2Cc3cn(C)nc3N(Cc3ccccc3OC3COC3)C2=O)CC1` [Example 250] was tested, and the IC50 was 0.01 µM.

Work on `COC(=O)C(C)(C)n1cc2c(n1)N(Cc1ccccc1C(F)(F)F)C(=O)N(C1CCN(c3c(C)cccc3F)CC1)C2` [Example 27] yielded an IC50 of 0.017 µM.

For `CC(=O)N1CCCC1Cn1cc2c(n1)N(Cc1ccccc1C(F)(F)F)C(=O)N(C1CCN(c3c(C)cccc3F)CC1)C2` (centres unmarked) [Example 115], the IC50 was 0.137 µM.

`Cc1cccc(F)c1N1CCC(N2Cc3cn(C)nc3N(Cc3ccccc3OC(F)(F)F)C2=O)CC1` [Example 232] showed an IC50 of 0.016 µM.

Work on `COc1nccc(C)c1N1CCC(N2C(=O)N(Cc3ccccc3C(F)(F)F)c3cn(C)nc3C2C)CC1` (single isomer, unassigned) [Example 298] yielded an IC50 of 0.029 µM.

With `Cc1cccc(F)c1N1CCC(N2Cc3nn(C4CC4)cc3N(Cc3ncccc3C(F)(F)F)C2=O)CC1` [Example 212] the IC50 was 0.01 µM.

`Cn1cc2c(n1)CN(C1CCN(c3c(F)cccc3Cl)CC1)C(=O)N2Cc1ccccc1C(F)(F)F` [Example 302] showed an IC50 of 0.048 µM.

`COc1nccc(C(F)F)c1N1CCC(N2C(=O)N(Cc3ccccc3C3CC3)c3nn(C4CC4)cc3C2C)CC1` (single isomer, unassigned) [Example 382] was tested, and the IC50 was 0.021 µM.

In the case of `CC1c2cn(C3CC3)nc2N(Cc2ccccc2C(F)(F)F)C(=O)N1C1CCN(c2c(F)cccc2C(F)F)CC1` (single isomer, unassigned) [Example 312], the IC50 is reported as 0.072 µM.

`Cc1cccc(F)c1N1CCC(N2Cc3cn(C[C@@H]4CC(F)(F)CN4)nc3N(Cc3ccccc3C(F)(F)F)C2=O)CC1` [Example 112] gave an IC50 of 0.018 µM.

Work on `Cc1cccc(F)c1N1CCC(N2Cc3nn(COCC[Si](C)(C)C)cc3N(Cc3ccccc3C(F)(F)F)C2=O)CC1` [Example 195] yielded an IC50 of 0.045 µM.

For `Cn1cc2c(n1)N(Cc1ccccc1C(F)(F)F)C(=O)N(C1CCN(c3c(F)cccc3C(F)F)CC1)C2` [Example 300], the IC50 was 0.029 µM.

Work on `CC(c1ccccc1C(F)(F)F)N1C(=O)N(C2CCN(c3c(F)cccc3F)CC2)Cc2cn(C)nc21` (single isomer, unassigned) [Example 290] yielded an IC50 of 0.351 µM.

Work on `Cc1cccc(F)c1N1CCC(N2Cc3cn(C[C@H]4CC(F)(F)CN4)nc3N(Cc3ccccc3C(F)(F)F)C2=O)CC1` [Example 111] yielded an IC50 of 0.029 µM.

Compound `Cc1cccc(F)c1N1CCC(N2Cc3cn(C(C)C#N)nc3N(Cc3ccccc3C(F)(F)F)C2=O)CC1` (centres unmarked) [Example 78] has an IC50 of 0.014 µM.

`CC(=O)N1CCC(n2cc3c(n2)N(Cc2ccccc2C(F)(F)F)C(=O)N(C2CCN(c4c(C)cccc4F)CC2)C3)C1` (centres unmarked) [Example 113] was tested, and the IC50 was 0.11 µM.

Work on `Cc1cccc(F)c1N1CCC(N2Cc3cn(CC(C)C#N)nc3N(Cc3ccccc3C(F)(F)F)C2=O)CC1` (centres unmarked) [Example 43] yielded an IC50 of 0.018 µM.

`CCn1cc2c(n1)N(Cc1ccccc1C(F)(F)F)C(=O)N(C1CCN(c3c(C)cccc3F)CC1)C2` [Example 169] gave an IC50 of 0.008 µM.

For `Cc1cccc(F)c1N1CCC(N2Cc3nn(C)cc3N(C(C)c3ccccc3C(F)(F)F)C2=O)CC1` (single isomer, unassigned) [Example 261], the IC50 was 0.58 µM.

Work on `COc1nccc(C)c1N1CCC(N2Cc3c[nH]nc3N(Cc3ccccc3C(F)(F)F)C2=O)CC1` [Example 197] yielded an IC50 of 0.017 µM.

In the case of `Cc1cccc(F)c1N1CCC(N2Cc3cn(CC(C)(C)NS(=O)(=O)c4ccc(Cl)cc4)nc3N(Cc3ccccc3C(F)(F)F)C2=O)CC1` [Example 101], the IC50 is reported as 0.022 µM.

`CCOC(=O)N1CC[C@@H]1Cn1cc2c(n1)N(Cc1ccccc1C(F)(F)F)C(=O)N(C1CCN(c3c(C)cccc3F)CC1)C2` [Example 134] gave an IC50 of 0.013 µM.

Compound `Cc1cccc(F)c1N1CC[C@@H](N2Cc3cn(C)nc3N(Cc3ccccc3C(F)(F)F)C2=O)C1` [Example 55] has an IC50 of 0.011 µM.

`Cc1cccc(F)c1N1CCC(N2Cc3n[nH]cc3N(Cc3ncccc3C(F)(F)F)C2=O)CC1` [Example 204] showed an IC50 of 0.023 µM.

With `Cc1cccc(F)c1N1CCC(N2C(=O)N(Cc3ncccc3C(F)(F)F)c3nn(C)cc3C2C)CC1` (single isomer, unassigned) [Example 354] the IC50 was 0.005 µM.

`Cc1cccc(F)c1N1CCC(N2Cc3cn(C[C@H]4CCN4C(=O)OC(C)(C)C)nc3N(Cc3ccccc3C(F)(F)F)C2=O)CC1` [Example 129] gave an IC50 of 0.02 µM.

Work on `Cc1cccc(F)c1N1CCC(N2Cc3cn(C)nc3N(Cc3nc(Cl)ccc3C(F)(F)F)C2=O)CC1` [Example 35] yielded an IC50 of 0.009 µM.

`Cc1cccnc1N1CCC(N2Cc3cn(C)nc3N(Cc3ccccc3C(F)(F)F)C2=O)CC1` [Example 69] was tested, and the IC50 was 0.038 µM.

With `Cc1cccc(F)c1N1CCC(N2Cc3cn(C)nc3N(Cc3nc(F)ccc3C(F)(F)F)C2=O)CC1` [Example 36] the IC50 was 0.007 µM.

Compound `Cc1ccnc(C#N)c1N1CCC(N2Cc3cn(C)nc3N(Cc3ccccc3C(F)(F)F)C2=O)CC1` [Example 85] has an IC50 of 0.034 µM.

With `COc1nccc(Cl)c1N1CCC(N2C(=O)N(Cc3ccccc3C3CC3)c3nn(C)cc3C2C)CC1` (single isomer, unassigned) [Example 379] the IC50 was 0.412 µM.

Compound `Cc1cccc(F)c1N1CCC(N2Cc3nn(C(C)(C)C)cc3N(Cc3ccccc3C(F)(F)F)C2=O)CC1` [Example 183] has an IC50 of 0.022 µM.

For `CC(C)c1ccccc1N1CCC(N2Cc3cn(C)nc3N(Cc3ccccc3C(F)(F)F)C2=O)CC1` [Example 257], the IC50 was 0.009 µM.

With `COc1nccc(Cl)c1N1CCC(N2C(=O)N(Cc3ccccc3C(F)(F)F)c3nn(C)cc3C2C)CC1` (single isomer, unassigned) [Example 376] the IC50 was 0.005 µM.

With `CC1c2cn(C)nc2N(Cc2ccccc2C2CC2)C(=O)N1C1CCN(c2c(F)cccc2C2CC2)CC1` (single isomer, unassigned) [Example 326] the IC50 was 0.355 µM.

`Cc1cccc(F)c1N1CCC(N2Cc3cn(C(C)C(F)F)nc3N(Cc3ccccc3C(F)(F)F)C2=O)CC1` (single isomer, unassigned) [Example 188] showed an IC50 of 0.01 µM.

`CC1c2cn(C)nc2N(Cc2ccccc2C2CC2)C(=O)N1C1CCN(c2c(F)cccc2Br)CC1` (single isomer, unassigned) [Example 384] was tested, and the IC50 was 0.012 µM.

For `Cc1cccc(F)c1N1CCC(N2Cc3cn(CC(C)(C)NS(=O)(=O)c4ccccc4[N+](=O)[O-])nc3N(Cc3ccccc3C(F)(F)F)C2=O)CC1` [Example 110], the IC50 was 0.028 µM.

`CC1c2cn(C)nc2N(Cc2ccccc2C(F)(F)F)C(=O)N1C1CCN(c2c(F)cccc2C(F)F)CC1` (single isomer, unassigned) [Example 314] was tested, and the IC50 was 0.008 µM.

For `Cc1cccc(F)c1N1CCC(N2Cc3cn(C4COC4)nc3N(Cc3ccccc3C(F)(F)F)C2=O)CC1` [Example 77], the IC50 was 0.01 µM.

`Cn1cc2c(n1)CN(C1CCN(c3c(F)cccc3C(F)(F)F)CC1)C(=O)N2Cc1ccccc1C(F)(F)F` [Example 271] showed an IC50 of 0.051 µM.

`Cc1cccc(F)c1N1CCC(N2C(=O)N(Cc3ccccc3C3CC3)c3c[nH]nc3C2C)CC1` (single isomer, unassigned) [Example 275] showed an IC50 of 0.02 µM.

Work on `Cc1cccc(F)c1N1CCC(N2Cc3cn(CC4CC4(F)F)nc3N(Cc3ccccc3C(F)(F)F)C2=O)CC1` (single isomer, unassigned) [Example 189] yielded an IC50 of 0.01 µM.

Compound `Cc1cccc(F)c1N1CCC(N2Cc3cn(CC4CCCN4C(=O)OC(C)(C)C)nc3N(Cc3ccccc3C(F)(F)F)C2=O)CC1` (centres unmarked) [Example 97] has an IC50 of 0.03 µM.

In the case of `Cn1cc2c(n1)N(Cc1ccccc1C1CC1)C(=O)N(C1CCN(c3c(F)cccc3OC(F)(F)F)CC1)C2` [Example 281], the IC50 is reported as 0.017 µM.

`COc1nccc(C)c1N1CCC(N2C(=O)N(Cc3ccccc3C3CC3)c3nn(C)cc3C2C)CC1` (single isomer, unassigned) [Example 369] gave an IC50 of 0.256 µM.

`Cc1cccc(F)c1N1CCC(N2Cc3cn(CC4(F)CC4)nc3N(Cc3ccccc3C(F)(F)F)C2=O)CC1` [Example 167] showed an IC50 of 0.01 µM.

`Cc1cccc(F)c1N1CCC(N2C(=O)N(Cc3ccccc3C3CC3)c3nn(C4CC4)cc3C2C)CC1` (single isomer, unassigned) [Example 340] gave an IC50 of 0.067 µM.

With `CC1c2c[nH]nc2N(Cc2ccccc2C2CC2)C(=O)N1C1CCN(c2c(F)cccc2Cl)CC1` (single isomer, unassigned) [Example 372] the IC50 was 0.011 µM.

`CC1c2cn(C3CC3)nc2N(Cc2ccccc2C(F)(F)F)C(=O)N1C1CCN(c2c(F)cccc2Cl)CC1` (single isomer, unassigned) [Example 336] showed an IC50 of 0.089 µM.

`Cc1cccc(F)c1N1CCC(N2Cc3cn(C)nc3N(Cc3nc(N(C)C)ccc3C(F)(F)F)C2=O)CC1` [Example 50] showed an IC50 of 0.085 µM.

`Cc1cccc(F)c1N1CCC(N2Cc3cn(CC4CC4)nc3N(Cc3ccccc3C(F)(F)F)C2=O)CC1` [Example 165] was tested, and the IC50 was 0.008 µM.
